Patent US9107894B2, “Formulation to improve gastrointestinal function” (University of Florida Research Foundation, Inc., priority 2007, dated 2015)

What was measured:
[1] = test system: CINC peptide; test: CINC peptide in gastrostomy fed (pup-in-a-cup), LPS treated rat pups; format: in vivo; conditions: for decrease of intestinal CINC peptide: intestine
Source text: Using the “pup-in-a-cup” rat model, protein deprivation and supplementation with GLN or GLU in the developing rat small intestine were examined. Four groups of 6-7 d old pups were fed via a gastrostomy tube providing 100% or 25% protein (relative to mother fed rats) rat milk substitute (RMS) with and without additional GLN or glutamate (GLU) for 6 d. Pups receiving the 100% protein RMS experienced better growth than the 3 groups of pups receiving the 25% protein RMS+/−GLN/GLU supplementation.
(§1) Cytokine induced neutrophil chemoattractant (CINC) is a rodent chemokine that performs neutrophil chemoattractant functions similar to IL-8 in the human. Large quantities of this proinflammatory mediator can be detrimental.
Intestinal CINC peptide in the LPS treated pups provided 100% and 25% protein was elevated about 13 fold compared to the mother reared pups. GLN and GlU decreased intestinal CINC peptide by 73 and 80%, respectively.

[2] = test system: CINC mRNA; test: CINC mRNA in small intestine by RT-PCR, protein deprived LPS treated rat pups; format: in vivo; conditions: 25% protein-fed, densitometry
Method: as §1, with “detrimental. […] To clarify the effects of diets on the CINC mRNA in small intestine, RT-PCR was performed.” for “detrimental.”

[3] = test system: myeloperoxidase (MPO); test: Intestinal myeloperoxidase activity in gastrostomy fed, LPS treated rats; format: in vivo, rat
Source text: An approximate 6-fold elevation of intestinal myeloperoxidase (MPO) activity in the gastrostomy fed, LPS treated rats was decreased by GLN and Glu by 92% and 54%, respectively.

[4] = test system: developing rat small intestine; test: Pup-in-a-cup rat model: growth, villus size and tight junction proteins under protein deprivation; format: in vivo; conditions: for villus height and area: 6-7 d old pups fed rat milk substitute for 6 d; for growth of pups: 6-7 d old pups fed rat milk substitute via gastrostomy tube for 6 d
Source text: Using the “pup-in-a-cup” rat model, protein deprivation and supplementation with GLN or GLU in the developing rat small intestine were examined. Four groups of 6-7 d old pups were fed via a gastrostomy tube providing 100% or 25% protein (relative to mother fed rats) rat milk substitute (RMS) with and without additional GLN or glutamate (GLU) for 6 d. […] Villus size is a major component of absorptive capability. […] The tight junction proteins play an integral role in paracellular permeability of the intestinal barrier, and two of these, claudin and occludin were evaluated using Western blotting.

[5] = test system: IEC-6; test: Proliferation of rat intestinal crypt cells (IEC-6) in the absence of GLN; format: cell-based; conditions: GLN synthetase inhibited cells, all treatment doses
Method: Studies were conducted to evaluate whether glutamate, a mixture of nucleotide monophosphates, arginine, or glucosamine could support proliferation of rat intestinal crypt cells (IEC-6) in the absence of GLN.

[6] = test system: BBDP rats; test: Mortality due to diabetes in BBDP rats; format: in vivo, rat
[7] = test system: Caco-2 cells; test: Poly (I:C) induced IL-8 production in differentiated Caco-2 cells (ELISA); format: cell-based, human
Method: In order to determine whether DHA has an effect on inducers of inflammation other than TNFα, stimulation of another Toll-like receptor was evaluated. Polyriboinosinic polyribocytidylic acid [poly(I:C)] is a synthetic double-stranded RNA that is used experimentally to model viral infections. It has recently been identified as one of the critical stimuli for toll like receptor 3 (TLR3). The effects of n-3 PUFA on viral induced inflammation in intestinal epithelia have not been reported.
Docosahexaenoic acid (DHA, 22:6 n-3) was used as n-3 PUFA and linoleic acid (LA, 18:2 n-6) as n-6 PUFA. Differentiated Caco-2 cells were pretreated with various doses of DHA or LA for 24 hours. The cells were then treated with poly (I: C) 50 ug/ml for another 24 hours. The culture medium was collected to measure the IL-8 production by ELISA. The first experiment determined the effect of Poly (I: C) on stimulation of IL-8, a major pro-inflammatory chemokine. Poly (I:C) increased IL-8 production by 10 fold.

[8] = test system: H4 cells; test: TNFα-induced IL-8 production in H4 cells; format: cell-based, human; conditions: H4, 24 h pretreatment, TNF-α 1 μg/L for 24 h
Method: EPA and DHA were used as n-3 PUFA and linoleic acid (LA, 18:2 n-6) as n-6 PUFA. The H4 and Caco-2 cells were pretreated with different doses of EPA, DHA and LA separately and in different combinations for 24 hours. Then TNF-α (1 μg/L for H4, 50 μg/L for Caco-2 cells) was added to cell culture medium and the cells were incubated for another 24 hours. The lower dose used in the H4 cell line reflects their exquisite sensitivity to inflammatory stimuli.
The effects of different doses of fatty acids on TNFα-induced IL-8 production were evaluated and are seen in FIGS. 2A-B.

N[C@@H](CCC(=O)O)C(=O)O [Glu, glutamate]
decrease of intestinal CINC peptide [1]: 80% | plasma CINC peptide [1]: but not Glu decreased plasma CINC peptide | CINC mRNA expression in small intestine [2]: did not show the same effect as GLN | decrease of intestinal myeloperoxidase (MPO) activity [3]: 54% | villus height and area [4]: did not differ | growth of pups [4]: neither GLN nor GLU alone can rescue the effects of protein deprivation | proliferation [5]: decrease in proliferation compared with cells treated with GLN

CCCC(=O)[O-].[Na+] [NaB]
mortality due to diabetes [6]: decrease mortality due to diabetes

N=C(N)NCCC[C@H](N)C(=O)O [arginine]
proliferation [5]: decrease in proliferation compared with cells treated with GLN

NC(=O)CC[C@H](N)C(=O)O [GLN, glutamine]
decrease of intestinal CINC peptide [1]: 73% | plasma CINC peptide [1]: decreased plasma CINC peptide | CINC mRNA expression in small intestine [2]: decreased CINC mRNA to a level similar to mother-fed animals | decrease of intestinal myeloperoxidase (MPO) activity [3]: 92% | villus height and area [4]: did not differ | growth of pups [4]: neither GLN nor GLU alone can rescue the effects of protein deprivation

N[C@H]1C(O)O[C@H](CO)[C@@H](O)[C@@H]1O (some centres unmarked) [glucosamine]
proliferation [5]: decrease in proliferation compared with cells treated with GLN

Polyriboinosinic polyribocytidylic acid [Poly (I:C)]
increase of IL-8 production ([7]; poly (I:C) 50 ug/ml, 24 hours): 10 fold

CC/C=C\C/C=C\C/C=C\C/C=C\C/C=C\C/C=C\CCC(=O)O [DHA, docosahexaenoic acid]
decrease of poly (I:C)-induced IL-8 production ([7]; 100 μM, 24 h pretreatment, poly (I:C) 50 ug/ml 24 h): 75%

CCCCC/C=C\C/C=C\CCCCCCCC(=O)O [LA, linoleic acid]
effect on TNF-α induced IL-8 production [8]: greater inflammatory effects on IL-8 production in H4 than in Caco-2 cells | poly (I:C)-induced IL-8 production ([7]; doses of 50 and 100 μM, 24 h pretreatment): did not significantly reduce IL-8 production
